# Laboratory results taken from patent publication US11723907B2, “Anti-aging compounds” (THE CLEVELAND CLINIC FOUNDATION, priority 2017, dated 2023).
# How the values were obtained:
# [1] = tested on: normal human fibroblasts (NHDF) and stromal cells isolated from human normal bone marrow; test: Replicative lifespan (RLS) of normal cells in tissue culture; assay type: cell-based; conditions: normal fibroblasts and mesenchymal cells
# Text: (§1) FIGS. 1A-1I provide graphs and images showing a new high throughput method for simultaneous detection of senescence associated SAβG activity and ATP in culture of normal pre-aged cells identified two potent anti-aging scaffolds. (A). General schema of HTS. (B). […] (C). Structures and corresponding tautameric forms of lead compounds. (D) Evaluation of possible genotoxic effect of experimental drugs in modified Ames test. 4-Nitroquinoline 1-oxide (4NQO) was used as a positive control. […] The general schema of RLS measurement in different cell types. (F) VA and N2N1 considerably extend RLS of normal human fibroblasts (NHDF) and stromal cells isolated from human normal bone marrow. (G). […] (I). Upper panel: Morphological appearance of NHDF at late passages with or without treatment. Lower panel: Cells were also fixed in para-formaldehyde and stained to detect SAβG.
# (§2) The inventors developed a new high-throughput screening (HTS) method for identification of anti-aging drugs (FIG. 1). The novel method was specifically designed for simultaneous detection of β-galactosidase activity in cell lysate followed by ATP detection by standard luciferase based assay. […] Altogether, the procedure allowed a simultaneous quantifiable detection of senescence associated β-galactosidase (SAβG) activity and evaluation of ATP level as a sign of improved proliferative capacity or cytotoxicity. […]
# [2] = tested on: bone marrow cells from aplastic anemia patients; test: Colony assay, aplastic anemia bone marrow; assay type: cell-based, human; conditions: tissue culture derived from aplastic anemia patients
# Text: While performing a multidrug screen for the agents that could simultaneously decrease senescence and overcome proliferative block in pre-senescent mesenchymal cells, the inventors identified two promising lead compounds violuric acid (VA) and 1-naphthoquinone-2-monoxime (N2N1). […] In term of hematopoietic stem cells (HSC) these agents prolonged the availability of HSC in methylcellulose (replicative/serial re-plating) experiments, long-term culture initiating cell assays (LTC-IC) and increased the performance of HSC in a competitive repopulation assay, the CD45.1/2 model. Furthermore, the inventors observed colonies formation in methylcellulose colony assay, after application of these drugs to the mononucleocyte fraction of bone marrow isolated from the patients diagnosed with severe AA. […] These compounds belong to a family of redox catalysts with unique chemical structure that shares a combined electrophile-nucleophile potential, a feature that renders these molecules effective anti-aging treatment in various biological model systems.
# FIGS. 2A-2G provide graphs and images showing N2N1 and VA support HSC/progenitors populations under pressure of differentiation and tissue culture stress in vitro and in vivo. General schema of CFU (A) and LTC-IC assays (B). […] Representative result of three NBM is shown. (D) The morphology of cells at the end of 1st part of LTC-IC assay is shown. […]
# [3] = tested on: mitochondrial respiration rate; test: Mitochondrial respiration and glycolysis on Seahorse apparatus; assay type: cell-based; conditions: within few minutes or even hours after addition
# Text: Based on results obtained on tissue cultured cells (increased RLS) and an increase in the numbers of HSC surrogate cells (LTC-IC or CFU), the inventors set their future goal to develop a novel pharmacological treatment for AA patients and potentially for other BMF. They have examined the most prominent features of cellular aging: telomere shortening, mitochondrial dysfunction or decline in respiratory capacity and shift in intracellular redox balance toward more oxidized environment. […] The only persistent effect of VA was considerable reduction in global protein disulfide bonds (up to 30%) detected by Elman's reagent or direct labelling of reduced sulfhydryl groups with biotin-switch assay (FIG. 3A). That brought the reductive hypothesis to the inventors' attention. The redox potential is controlled by sophisticated set of diverse enzymes and this system is fed from generation of NADPH by multiple hydrogenases (FIG. 3B). Among them, the glucose-6-phosphate dehydrogenase (G6P) is most important, because it controls the rate limiting step of pentose phosphate pathway. The other important dehydrogenases are isocytrate dehydrogenases (cytoplasmic and mitochondrial, IDH1/2) and 6-phosphogluconate dehydrogenase (6PG). The next anti-oxidant cellular protection layer is thioredoxin and glutathione systems (FIG. 3B). The first one is composed of thioredoxin reductase (TrxR) and thioredoxin. […]
# NHDF = test: SAβG staining of NHDF at late passages; assay type: cell-based, human
# Text: as §1, §2
# [4] = tested on: erythropoietin-dependent UT7 cells; test: Growth of erythropoietin-dependent UT7 cells; assay type: cell-based
SMILES,expansion above regular replicative life span [1] [doublings],colonies formation [2],immediate response in mitochondrial respiration rate or glycolysis efficacy [3],number of SAβG positive cells (NHDF),growth support [4]
"O=C1/C(=N/O)C=Cc2ccccc21 [N2N1, 1-naphthoquinone-2-monoxime]",~25,promote colonies formation,could not detect any immediate,substantially decreased,
"O=C1NC(=O)C(=NO)C(=O)N1 [VA, 2,4,5,6(1H,3H)-pyrimidine-tetrone 5-oxime]",~25,promote colonies formation,could not detect any immediate,substantially decreased,does not support the growth
